Where two headings read alike, the source gives them in different places.
Assays:
[1] = test system: Erysiphe graminis f.sp. tritici; test: Erysiphe graminis f.sp. tritici (wheat powdery mildew) leaf disk assay; assay type: in vivo; settings: Blumeria graminis, foliar, 96 h, preventive, four days after inoculation, read-out: control of fungal infection, Erysiphe graminis fsp. tritici
Myzus persicae = Myzus persicae (Green peach aphid) sunflower leaf disc test; settings: foliar, 144 h, read-out: control of Myzus persicae
Heliothis virescens = Heliothis virescens (Tobacco budworm) egg test on artificial diet; settings: 96 h, read-out: control of Heliothis virescens
Aedes aegypti = Aedes aegypti (Yellow fever mosquito) larvae test; assay type: in vivo; settings: 48 h
Pyricularia oryzae = test: whole plant or invertebrate; assay type: in vivo; settings: foliar, 96 h
Plutella xylostella = Plutella xylostella (Diamond back moth) artificial diet test; settings: 120 h, read-out: control of Plutella xylostella
[2] = test system: Puccinia recondita f.sp. tritici; test: Puccinia recondita f.sp. tritici (wheat brown rust) leaf disk assay; assay type: in vivo; settings: foliar, 216 h, preventive, nine days after inoculation, read-out: control of fungal infection, Puccinia recondita f.sp. tritici
Phytophthora infestans = test: whole plant or invertebrate; assay type: in vivo; settings: foliar, 96 h, read-out: control of fungal infection, Phytophthora infestans
Plasmopara viticola = Plasmopara viticola (downy mildew of grapevine) leaf disk assay; assay type: in vivo; settings: foliar, 168 h, preventive, seven days after inoculation, read-out: control of fungal infection, Plasmopara viticola
Septoria tritici = Septoria tritici (leaf blotch) growth inhibition in nutrient broth; assay type: cell-based; settings: Zymoseptoria tritici, 72 hrs, read-out: control of fungal infection, Septoria tritici
Tetranychus urticae = settings: foliar, 192 h, read-out: control of Tetranychus urticae
Pythium ultimum = Pythium ultimum (Damping off) growth inhibition in potato dextrose broth; assay type: cell-based; settings: Globisporangium ultimum, 48 hours, read-out: control of fungal infection, Pythium ultimum
[3] = read-out: control of fungal infection, Pyricularia oryzae (at least 60% list)
[4] = read-out: control of fungal infection, Pyricularia oryzae (at least 80% list)

SMILES	pest or weed control at 200 ppm [1] [%]	pest or weed control at 200 ppm (Myzus persicae) [%]	pest or weed control at 200 ppm (Heliothis virescens) [%]	pest or weed control at 2 ppm (Aedes aegypti) [%]	pest or weed control at 200 ppm (Pyricularia oryzae; [3]) [%]	pest or weed control at 200 ppm (Plutella xylostella) [%]	pest or weed control at 200 ppm [2] [%]	pest or weed control at 200 ppm (Phytophthora infestans) [%]	pest or weed control at 200 ppm (Plasmopara viticola) [%]	inhibition of growth at 200 ppm (Septoria tritici) [%]	pest or weed control at 200 ppm (Tetranychus urticae) [%]	pest or weed control at 200 ppm (Pyricularia oryzae; [4]) [%]	inhibition of growth at 200 ppm (Pythium ultimum) [%]	melting point [°C]
Clc1ccc(CON=C2CC3CCC(C2)N3c2ncnc3sccc23)c(Cl)c1 [Example 5.152]	≥ 80	≥ 80	≥ 80	≥ 80	≥ 60	≥ 80	≥ 80	–	–	–	–	–	–	–
Cc1ccc(CON=C2CC3CCC(C2)N3c2ncnc3sccc23)c(C)c1 [Example 5.190]	≥ 80	≥ 80	–	≥ 80	–	≥ 80	≥ 80	≥ 80	≥ 80	–	–	–	–	–
CCc1ncnc(N2C3CCC2CC(=NOCc2c(F)ccc(F)c2F)C3)c1Cl [Example 5.82]	≥ 80	≥ 80	–	≥ 80	≥ 60	≥ 80	≥ 80	≥ 80	–	–	–	–	–	–
CCc1ncnc(N2[C@@H]3CC[C@H]2CC(O/N=C(\C)c2cccnc2)C3)c1Cl (stereo partly shown) [Example 2.97]	–	–	–	–	≥ 60	–	–	–	≥ 80	≥ 60	≥ 80	–	–	–
CCc1ncnc(N2[C@@H]3CC[C@H]2CC(Oc2ccc(CCC(C)=O)cc2)C3)c1Cl (stereo partly shown) [Example 1.213]	≥ 80	≥ 80	–	–	–	–	≥ 80	–	–	–	≥ 80	–	–	–
Fc1ccc(F)c(CON=C2CC3CCC(C2)N3c2ncnc3sccc23)c1 [Example 5.218]	≥ 80	≥ 80	–	≥ 80	≥ 60	≥ 80	≥ 80	–	–	–	≥ 80	≥ 80	≥ 60	–
CCCCCC(=O)C=C1CC2CCC(C1)N2c1ncnc2sccc12 [Example 3.35]	–	–	–	≥ 80	≥ 60	≥ 80	≥ 80	–	≥ 80	≥ 60	–	≥ 80	–	–
CCOC(=O)C=C1CC2CCC(C1)N2c1ncnc(CC)c1Cl [Example 3.8]	–	–	≥ 80	≥ 80	–	–	≥ 80	–	–	≥ 60	–	–	–	–
Cc1ccc(OCC=C2CC3CCC(C2)N3c2ncnc3sccc23)cn1 [Example 3.29]	–	≥ 80	≥ 80	≥ 80	–	≥ 80	≥ 80	≥ 80	≥ 80	–	–	≥ 80	–	–
CCc1ncnc(N2C3CCC2CC(=NOCc2ccccc2F)C3)c1Cl [Example 5.54]	≥ 80	≥ 80	–	≥ 80	–	≥ 80	≥ 80	–	–	–	≥ 80	–	–	–
Fc1cccc2c(N3[C@@H]4CC[C@H]3CC(Oc3ccc(C(F)(F)F)cn3)C4)ccnc12 (stereo partly shown) [Example 2.201]	≥ 80	–	≥ 80	≥ 80	≥ 60	≥ 80	≥ 80	≥ 80	–	–	≥ 80	–	≥ 60	–
CCc1ncnc(N2C3CCC2CC(=NOCc2cc4c(cc2Cl)OCO4)C3)c1Cl [Example 5.114]	≥ 80	≥ 80	–	≥ 80	–	–	≥ 80	–	≥ 80	–	–	–	–	–
CCc1ncnc(N2C3CCC2CC(=NOCc2ccc(C(F)(F)F)cc2)C3)c1Cl [Example 5.43]	≥ 80	≥ 80	–	–	–	≥ 80	≥ 80	–	–	–	≥ 80	≥ 80	–	–
CCc1ncnc(N2C3CCC2CC(=CCOc2cc(C)nc(C)n2)C3)c1Cl [Example 3.15]	–	–	≥ 80	≥ 80	–	–	≥ 80	–	–	≥ 60	–	≥ 80	–	–
Fc1ccc(CON=C2CC3CCC(C2)N3c2ncnc3sccc23)cc1 [Example 5.166]	≥ 80	≥ 80	–	≥ 80	≥ 60	≥ 80	≥ 80	≥ 80	≥ 80	–	–	≥ 80	–	–
Cc1nc(CON=C2CC3CCC(C2)N3c2ncnc3sccc23)no1 [Example 5.245]	≥ 80	≥ 80	≥ 80	≥ 80	–	≥ 80	≥ 80	–	–	–	–	≥ 80	–	–
CCc1ncnc(N2C3CCC2CC(=NOCc2ccc(F)cc2Cl)C3)c1Cl [Example 5.76]	–	≥ 80	–	≥ 80	≥ 60	≥ 80	≥ 80	–	–	–	–	–	–	–
CCc1ncnc(N2[C@@H]3CC[C@H]2CC(O)(COc2ccc(C)cc2)C3)c1Cl (stereo partly shown) [Example 1.159]	–	–	–	–	–	–	≥ 80	–	≥ 80	≥ 60	–	–	–	–
Cc1csc2c(N3[C@@H]4CC[C@H]3CC(Oc3cccc(C(F)(F)F)n3)C4)ncnc12 (stereo partly shown) [Example 2.82]	≥ 80	–	–	–	≥ 60	–	–	–	–	≥ 60	–	–	–	123
FC(F)(F)c1cccc(OC2C[C@H]3CC[C@@H](C2)N3c2ncnc3ccsc23)n1 (stereo partly shown) [Example 2.78]	–	–	–	–	≥ 60	–	≥ 80	–	–	≥ 60	–	≥ 80	–	109
CCc1ncnc(N2C3CCC2CC(Cc2ccccc2)C3)c1Cl (stereo not shown) [Example 7.23]	–	–	–	≥ 80	–	≥ 80	≥ 80	–	–	≥ 60	–	–	–	–
Fc1ccc(CON=C2CC3CCC(C2)N3c2ncnc3sccc23)c(F)c1F [Example 5.222]	≥ 80	≥ 80	–	≥ 80	≥ 60	≥ 80	≥ 80	–	≥ 80	–	–	–	≥ 60	–
CCc1ncnc(N2C3CCC2CC(=NOCc2ccc(Cl)cc2)C3)c1Cl [Example 5.21]	≥ 80	≥ 80	≥ 80	≥ 80	–	≥ 80	≥ 80	≥ 80	–	–	–	≥ 80	–	–
COC(=O)CC1CC2CCC(C1)N2c1ncnc2sccc12 (stereo not shown) [Example 7.9]	–	–	–	≥ 80	–	≥ 80	–	–	–	≥ 60	≥ 80	–	–	–
CC(C)(C)c1ccc(OC2C[C@H]3CC[C@@H](C2)N3c2ncnc3sccc23)cc1 (stereo partly shown) [Example 1.25]	–	≥ 80	–	–	–	–	–	≥ 80	≥ 80	–	≥ 80	–	–	–
CCc1ncnc(N2C3CCC2CC(O)(CC#Cc2ccccc2)C3)c1Cl (stereo not shown) [Example 7.35]	–	–	–	–	≥ 60	–	≥ 80	–	≥ 80	≥ 60	–	–	–	–
CCc1ncnc(N2C3CCC2CC(=NOCc2ccc(C)cc2)C3)c1Cl [Example 5.7]	≥ 80	≥ 80	–	≥ 80	–	≥ 80	≥ 80	≥ 80	–	–	–	–	–	–
c1ccc(CON=C2CC3CCC(C2)N3c2ncnc3sccc23)cc1 [Example 5.138]	≥ 80	–	≥ 80	≥ 80	≥ 60	≥ 80	≥ 80	≥ 80	≥ 80	–	≥ 80	–	≥ 60	–

From US20100331348A1, “TROPANE DERIVATIVES USEFUL AS PESTICIDES” (SYNGENTA CROP PROTECTION, INC., priority 2007, published 2010)
